Where no end group is shown, it is not given here. [ ]: non-standard residue; d: D form. pT = C[C@@H](OP(=O)(O)O)[C@H](N)C(=O)O; pS = N[C@@H](COP(=O)(O)O)C(=O)O
Test system: PBMC
Assay: IFNg/IL-5 dual ELISPOT after 14 day in vitro stimulation of PBMC with Tau peptides
Assay type: cell-based, human
Details: for PD % of Total Responders / PD Total SFC / PD Total Responders: PD donors; for % of total response / Average SFC per responder / Frequency of response / Total SFC per epitope: across all cohorts; for Total Responders / Total SFC: all three cohorts (PD, HC > 50, HC < 35); for HC < 35 Total Responders / HC < 35 Total SFC: healthy controls < 35 years old
From the text: It was investigated whether T cell responses against Tau were detectable in the PD and healthy control (HC) donors. To this end, a panel of overlapping peptides spanning through the entire sequence of the Tau protein was synthesized. Since it is known that the Tau protein is post-translationally modified (mainly by phosphorylation), in several instances phosphorylated peptides were also synthesized. In all, 55 non-modified 16-mers overlapping by 8 and 14 modified 16-mers were synthesized.
PD: n=16, peptides tested 14-16 times; HC above 50 years old denominated as age-matched: n=11 (9-11 times) and HC below 35 years old (HC Young): n=13 (10-13 times).
These peptides were tested utilizing the following assay strategy. Briefly, PBMC from each donor were stimulated in vitro for 14 days as described (Hinz, D., 2015) with pools of 10 to 16 peptides each. After 14 days, the T cell cultures were assayed with IFNg/IL-5 dual ELISPOT assays […]. Positive pools were deconvoluted at day 17 to identify the specific individual epitopes recognized.

[1] = healthy controls > 50 years old

## ATLADEVSASLAKQGL (listed as Homo sapiens) [Tau 16-mer, start 426]
  PD/HC > 50 Ratio of % Responders: 1.5
  PD/HC > 50 Ratio of Response: 0.8
  HC > 50 % of Total Responders: 40.0%
  PD % of Total Responders: 60.0%
  % of total response: 1.4%
  Average SFC per responder: 999 SFC
  Frequency of response: 9.4
  Total SFC per epitope: 4997 SFC
HC > 50, dominant epitopes
  HC > 50 Total SFC: 2803 SFC
Dominant epitopes
  PD Total SFC: 2193 SFC

## DRSGYSSPGZPGXPGS
  PD/HC > 50 Ratio of % Responders: 5.0
  PD/HC > 50 Ratio of Response: 7.3
  HC > 50 % of Total Responders: 11.1%
  PD % of Total Responders: 55.6%
  PD Total Responders: 5
  PD Total SFC: 1360 SFC
  % of total response: 1.6%
  Average SFC per responder: 611 SFC
  Frequency of response: 17.0
  Total SFC per epitope: 5499 SFC
  Total Responders: 9
  Total SFC: 5499 SFC
  HC < 35 Total Responders: 3
  HC < 35 Total SFC: 3952 SFC
HC > 50, dominant epitopes
  HC > 50 Total SFC: 187 SFC
Dominant epitopes
  PD Total SFC: 1360 SFC
[1]
  HC > 50 Total Responders: 1
  HC > 50 Total SFC: 187 SFC

## IKHVPGGGSVQIVYKP (listed as Homo sapiens) [Tau 16-mer, start 297]
  PD/HC > 50 Ratio of % Responders: 1.3
  PD/HC > 50 Ratio of Response: 11.6
  HC > 50 % of Total Responders: 33.3%
  PD % of Total Responders: 44.4%
  % of total response: 3.4%
  Average SFC per responder: 1319 SFC
  Frequency of response: 17.0
  Total SFC per epitope: 11875 SFC
HC > 50, dominant epitopes
  HC > 50 Total SFC: 737 SFC
Dominant epitopes
  PD Total SFC: 8565 SFC

## SNVSSTGSIDMVDSPQ (listed as Homo sapiens) [Tau 16-mer, start 409]
  PD Total Responders: 2
  PD Total SFC: 710 SFC
  Total Responders: 3
  Total SFC: 1767 SFC
  HC < 35 Total Responders: 0
  HC < 35 Total SFC: 0 SFC
[1]
  HC > 50 Total Responders: 1
  HC > 50 Total SFC: 1057 SFC

## DFKDRVQSKIGZLDNI
  PD/HC > 50 Ratio of % Responders: 2.0
  PD/HC > 50 Ratio of Response: 3.7
  HC > 50 % of Total Responders: 28.6%
  PD % of Total Responders: 57.1%
  PD Total Responders: 4
  PD Total SFC: 4490 SFC
  % of total response: 1.9%
  Average SFC per responder: 972 SFC
  Frequency of response: 13.2
  Total SFC per epitope: 6807 SFC
  Total Responders: 7
  Total SFC: 6807 SFC
  HC < 35 Total Responders: 1
  HC < 35 Total SFC: 1097 SFC
HC > 50, dominant epitopes
  HC > 50 Total SFC: 1220 SFC
Dominant epitopes
  PD Total SFC: 4490 SFC
[1]
  HC > 50 Total Responders: 2
  HC > 50 Total SFC: 1220 SFC

## DRSGYSSPGSPGTPGS (DRSGYSSPG[pS]PG[pT]PGS; listed as Homo sapiens) [Tau 16-mer, start 193]
  PD Total Responders: 1
  PD Total SFC: 1175 SFC
  Total Responders: 2
  Total SFC: 1332 SFC
  HC < 35 Total Responders: 0
  HC < 35 Total SFC: 0 SFC
[1]
  HC > 50 Total Responders: 1
  HC > 50 Total SFC: 157 SFC

## KVAVVRTPPKSPSSAK (KVAVVR[pT]PPKSPSSAK; listed as Homo sapiens)
  PD/HC > 50 Ratio of % Responders: inf
  PD/HC > 50 Ratio of Response: inf
  HC > 50 % of Total Responders: 0.0%
  PD % of Total Responders: 100.0%
  PD Total Responders: 5
  PD Total SFC: 4556 SFC
  % of total response: 1.3%
  Average SFC per responder: 911 SFC
  Frequency of response: 9.4
  Total SFC per epitope: 4556 SFC
  Total Responders: 5
  Total SFC: 4556 SFC
  HC < 35 Total Responders: 0
  HC < 35 Total SFC: 0 SFC
HC > 50, dominant epitopes
  HC > 50 Total SFC: 0 SFC
Dominant epitopes
  PD Total SFC: 4556 SFC
[1]
  HC > 50 Total Responders: 0
  HC > 50 Total SFC: 0 SFC

## HVTQARMVSKSKDGTG (listed as Homo sapiens)
  PD/HC > 50 Ratio of % Responders: 5.0
  PD/HC > 50 Ratio of Response: 66.9
  HC > 50 % of Total Responders: 10.0%
  PD % of Total Responders: 50.0%
  % of total response: 4.2%
  Average SFC per responder: 1468 SFC
  Frequency of response: 18.9
  Total SFC per epitope: 14677 SFC
HC > 50, dominant epitopes
  HC > 50 Total SFC: 133 SFC
Dominant epitopes
  PD Total SFC: 8916 SFC

## TPPTREPKKVAVVRTP (listed as Homo sapiens)
  PD Total Responders: 1
  PD Total SFC: 1707 SFC
  Total Responders: 1
  Total SFC: 1707 SFC
  HC < 35 Total Responders: 0
  HC < 35 Total SFC: 0 SFC
[1]
  HC > 50 Total Responders: 0
  HC > 50 Total SFC: 0 SFC

## GDTSPRHLSNVSSTGS (listed as Homo sapiens) [Tau 16-mer, start 401]
  PD/HC > 50 Ratio of % Responders: 0.3
  PD/HC > 50 Ratio of Response: 0.6
  HC > 50 % of Total Responders: 50.0%
  PD % of Total Responders: 16.7%
  % of total response: 1.1%
  Average SFC per responder: 633 SFC
  Frequency of response: 11.3
  Total SFC per epitope: 3798 SFC
HC > 50, dominant epitopes
  HC > 50 Total SFC: 1657 SFC
Dominant epitopes
  PD Total SFC: 997 SFC

## SVQIVYKPVDLSKVTS (listed as Homo sapiens)
  PD/HC > 50 Ratio of % Responders: 0.9
  PD/HC > 50 Ratio of Response: 1.1
  HC > 50 % of Total Responders: 42.1%
  PD % of Total Responders: 36.8%
  % of total response: 4.0%
  Average SFC per responder: 731 SFC
  Frequency of response: 35.8
  Total SFC per epitope: 13888 SFC
HC > 50, dominant epitopes
  HC > 50 Total SFC: 5460 SFC
Dominant epitopes
  PD Total SFC: 6203 SFC

## PMPDLKNVKSKIGZTE
  PD/HC > 50 Ratio of % Responders: 1.3
  PD/HC > 50 Ratio of Response: 1
  HC > 50 % of Total Responders: 36.4%
  PD % of Total Responders: 45.5%
  PD Total Responders: 5
  PD Total SFC: 5175 SFC
  % of total response: 3.2%
  Average SFC per responder: 1006 SFC
  Frequency of response: 20.8
  Total SFC per epitope: 11063 SFC
  Total Responders: 11
  Total SFC: 11063 SFC
  HC < 35 Total Responders: 2
  HC < 35 Total SFC: 720 SFC
HC > 50, dominant epitopes
  HC > 50 Total SFC: 5168 SFC
Dominant epitopes
  PD Total SFC: 5175 SFC
[1]
  HC > 50 Total Responders: 4
  HC > 50 Total SFC: 5168 SFC

## GQKGQANATRIPAKTP (listed as Homo sapiens) [Tau 16-mer, start 161]
  PD/HC > 50 Ratio of % Responders: 4.0
  PD/HC > 50 Ratio of Response: 3.5
  HC > 50 % of Total Responders: 16.7%
  PD % of Total Responders: 66.7%
  % of total response: 2.3%
  Average SFC per responder: 1361 SFC
  Frequency of response: 11.3
  Total SFC per epitope: 8164 SFC
HC > 50, dominant epitopes
  HC > 50 Total SFC: 1770 SFC
Dominant epitopes
  PD Total SFC: 6247 SFC

## TRIPAKTPPAPKTPPS (listed as Homo sapiens) [Tau 16-mer, start 169]
  PD/HC > 50 Ratio of % Responders: 1.0
  PD/HC > 50 Ratio of Response: 8.1
  HC > 50 % of Total Responders: 33.3%
  PD % of Total Responders: 33.3%
  % of total response: 1.1%
  Average SFC per responder: 1299 SFC
  Frequency of response: 5.7
  Total SFC per epitope: 3897 SFC
HC > 50, dominant epitopes
  HC > 50 Total SFC: 180 SFC
Dominant epitopes
  PD Total SFC: 145 SFC

## SNVSSTGSIDMVDZPQ
  PD Total Responders: 4
  PD Total SFC: 1484 SFC
  Total Responders: 4
  Total SFC: 1484 SFC
  HC < 35 Total Responders: 0
  HC < 35 Total SFC: 0 SFC
[1]
  HC > 50 Total Responders: 0
  HC > 50 Total SFC: 0 SFC

## PAPKTPPSSGEPPKSG (PAPK[pT]PPSSGEPPKSG; listed as Homo sapiens)
  PD Total Responders: 0
  PD Total SFC: 0 SFC
  Total Responders: 1
  Total SFC: 107 SFC
  HC < 35 Total Responders: 0
  HC < 35 Total SFC: 0 SFC
[1]
  HC > 50 Total Responders: 1
  HC > 50 Total SFC: 107 SFC

## KKIETHKLTFRENAKA (listed as Homo sapiens) [Tau 16-mer, start 369]
  PD/HC > 50 Ratio of % Responders: 1.4
  PD/HC > 50 Ratio of Response: 1.4
  HC > 50 % of Total Responders: 31.3%
  PD % of Total Responders: 43.8%
  % of total response: 5.4%
  Average SFC per responder: 1174 SFC
  Frequency of response: 30.2
  Total SFC per epitope: 18790 SFC
HC > 50, dominant epitopes
  HC > 50 Total SFC: 5898 SFC
Dominant epitopes
  PD Total SFC: 8190 SFC

## PMPDLKNVKSKIGSTE (PMPDLKNVKSKIG[pS]TE; listed as Homo sapiens) [Tau 16-mer, start 249]
  PD/HC > 50 Ratio of % Responders: 1.7
  PD/HC > 50 Ratio of Response: 2.2
  HC > 50 % of Total Responders: 30.0%
  PD % of Total Responders: 50.0%
  PD Total Responders: 5
  PD Total SFC: 13363 SFC
  % of total response: 5.7%
  Average SFC per responder: 1982 SFC
  Frequency of response: 18.9
  Total SFC per epitope: 19815 SFC
  Total Responders: 10
  Total SFC: 19815 SFC
  HC < 35 Total Responders: 2
  HC < 35 Total SFC: 368 SFC
HC > 50, dominant epitopes
  HC > 50 Total SFC: 6084 SFC
Dominant epitopes
  PD Total SFC: 13363 SFC
[1]
  HC > 50 Total Responders: 3
  HC > 50 Total SFC: 6084 SFC

## GKVQIINKKLDLSNVQ (listed as Homo sapiens) [Tau 16-mer, start 273]
  PD/HC > 50 Ratio of % Responders: 2.5
  PD/HC > 50 Ratio of Response: 3.3
  HC > 50 % of Total Responders: 20.0%
  PD % of Total Responders: 50.0%
  % of total response: 8.6%
  Average SFC per responder: 1511 SFC
  Frequency of response: 37.7
  Total SFC per epitope: 30211 SFC
HC > 50, dominant epitopes
  HC > 50 Total SFC: 5560 SFC
Dominant epitopes
  PD Total SFC: 18290 SFC
